Assay results: publication PMC3894558, “Chemical signatures and new drug targets for gametocytocidal drug development” (Scientific Reports, 2014)
Where two headings read alike, the source gives them in different places.

Tested on: P. falciparum 3D7 gametocytes
Assay: alamarBlue gametocyte viability assay, strain 3D7
Format: cell-based, Plasmodium falciparum
Details: for Max Resp: DMSO set at 0%, 100 nM epoxomicin set at -100%; call rule not given here
[1] = Malaria Box, stages III-V 3D7 gametocytes
[2] = Malaria Box, stages III-V 3D7 gametocytes, 11 concentrations, 1:3 dilution
[3] = Malaria Box, stages III-V 3D7 gametocytes, 11 concentrations, 1:3 dilution, read-out: IC50

IC50 [2] | IC50 [3] [µM] | SMILES | Max Resp (Malaria Box) [%] | Curve Class [1] | reduction of gametocyte viability (Malaria Box screen) [%] | IC50 (P. falciparum 3D7 gametocytes, mean of at least 3 independent experiments, read-out: Gametocyte IC50) [µM]
Inactive |  | CCOc1ccc(CCNC(=O)c2cccs2)cc1OCC [MMV007978] | -13 | 4 |  | 
Inactive |  | CN1CCN(c2c3c(c(C#N)c4nc5ccccc5n24)CCC3)CC1 [MMV008127] | -5 | 4 |  | 
Inactive |  | O=C(O)C1Cc2c([nH]c3ccccc23)C(c2ccc(Cl)cc2Cl)N1 (centres unmarked) [MMV008138] | -1 | 4 |  | 
Inactive |  | Cc1c(C)n(Cc2ccc(F)cc2)c2ccc(C(=O)NCc3ccco3)cc12 [MMV008149] | 17 | 4 |  | 
 | 14.8 | CN1C=C(c2ccc3ccccc3n2)C(c2c[nH]c3ccccc23)c2ccccc21 (centres unmarked) [MMV008160] | -87 | -2.1 |  | 
Inactive |  | COc1cc(OC)cc(N2C(=O)N(Cc3ccc(C(C)(C)C)cc3)c3ccccc3S2(=O)=O)c1 [MMV008173] | 0 | 4 |  | 
 | 29.6 | COc1ccc2nc(C)cc(Nc3cccc(O)c3)c2c1.Cl [MMV008212] | -64 | -2.2 |  | 
Inactive |  | CCOC(=O)c1cnc2c(C)cc(C)cc2c1Nc1ccc(OC)c(OC)c1 [MMV008294] | -8 | 4 |  | 
 | 37.2 | CCCc1c(CC)c(=N)c2ccccc2n1C [MMV008416] | -53 | -2.2 |  | 
 | 16.6 | COc1ccc(C2C(C(=O)Nc3cccc(OC)c3)c3ccccc3C(=O)N2C2CCCCC2)cc1 (centres unmarked) [MMV008455] | -89 | -2.1 |  | 
Inactive |  | CCN1CCN(c2c(C(=O)c3ccccc3)cnc3cc(OC)c(OC)cc23)CC1 [MMV008474] | -32 | -2.4 |  | 
Inactive |  | CCCn1c(=N)c(C(=O)NC2CCCCC2)cc2c(=O)n3cccc(C)c3nc21 [MMV008829] | -26 | 4 |  | 
 | 3.32 | CCOc1cc2c(cc1OCC)C(c1cc(OC)c(O)cc1Cl)NCC2 (centres unmarked) [MMV008956] | -73 | -1.2 |  | 
 | 7.43 | O=C(CCc1ccccc1)c1ccccc1OCC(O)CN1CCCCC1 (centres unmarked) [MMV009015] | -74 | -2.2 |  | 
Inactive |  | CCN(CC)c1ccc(NC(=O)c2cccs2)cc1 [MMV009060] | 20 | 4 |  | 
 | 2.35 | OC(CNC1CCCCC1)Cn1c2ccccc2c2ccccc21 (centres unmarked) [MMV009063] | -99 | -1.1 |  | 
 | 14.8 | O=C1c2ccc3c4c(ccc(c24)C(=O)N1CCCCO)C(=O)N(CCCCO)C3=O [MMV009085] | -71 | -2.2 |  | 
Inactive |  | Br.CCN(CC)S(=O)(=O)c1ccc(-c2csc(Nc3ccc(C)c(C)c3)n2)cc1 [MMV009108] | -14 | 4 |  | 
 | 29.6 | CC1CCN(Cc2c(O)ccc3cc(-c4nc5ccccc5s4)c(=O)oc23)CC1 [MMV009127] | -72 | -2.2 |  | 
Inactive |  | Cc1cc(Nc2ccc3ccccc3c2)n2ncnc2n1 [MMV011099] | -5 | 4 |  | 
Inactive |  | Cc1cc(Nc2ccc(Cl)cc2)n2nc(C(F)(F)F)nc2n1 [MMV011256] | -9 | 4 |  | 
Inactive |  | Cc1cc(C)cc(Nc2cc(C)nc3nc(C(F)(F)F)nn23)c1 [MMV011259] | 4 | 4 |  | 
 | 14.8 | Cc1ccc(Nc2nc(N)c3ccccc3n2)cc1Cl [MMV011522] | -73 | -2.2 |  | 
Inactive |  | COc1ccc(C(=O)Nc2nonc2-c2ccc(OC)c(OC)c2)cc1Cl [MMV011567] | 1 | 4 |  | 
 | 3.72 | CCOC(=O)C1CCN(C(=O)CN2C(=O)c3ccccc3C2c2c[nH]c3ccccc23)CC1 (centres unmarked) [MMV011576] | -98 | -1.1 |  | 
 | 29.6 | Oc1ccc2ccccc2c1CNc1nc2ccccc2[nH]1 [MMV011832] | -67 | -2.2 |  | 
 | 18.7 | Nc1ccc(-c2nc3cc(Oc4ccc(Oc5ccc6[nH]c(-c7ccc(N)cc7)nc6c5)cc4)ccc3[nH]2)cc1 [MMV011895] | -78 | -2.2 |  | 

IC50 [2] | IC50 [3] [µM] | SMILES | Max Resp (Malaria Box) [%] | Curve Class [1] | reduction of gametocyte viability (Malaria Box screen) [%] | IC50 (P. falciparum 3D7 gametocytes, mean of at least 3 independent experiments, read-out: Gametocyte IC50) [µM]
 | 14.8 | COc1cccc(Nc2nc(NCCO)c3ccccc3n2)c1.Cl [MMV011944] | -68 | -2.2 |  | 
Inactive |  | Cc1cc(NC(=O)c2ccc(-c3ccccc3)cc2)no1 [MMV018984] | 14 | 4 |  | 
 | 2.64 | COCCNCC(O)Cn1c2ccc(Cl)cc2c2cc(Cl)ccc21 (centres unmarked) [MMV019017] | -94 | -1.1 |  | 
Inactive |  | COc1cccc(-c2nn(C)c3sc(C(=O)NCCN4CCN(c5ccccc5F)CC4)cc23)c1 [MMV019064] | -42 | -2.2 |  | 
Inactive |  | COc1ccccc1CNC(=O)CCn1c(=O)[nH]c2ccsc2c1=O [MMV019066] | -11 | 4 |  | 
Inactive |  | CCN1CCN(c2cc(C)c3cc(NC(=O)c4ccc(OC)c(OC)c4)ccc3n2)CC1 [MMV019074] | -32 | -2.2 |  | 
 | 18.7 | Cc1cccc(Nc2nc(N)c3ccccc3n2)c1.Cl [MMV019110] | -65 | -2.2 |  | 
 | 23.5 | COc1cccc(Nc2nc(N)c3ccccc3n2)c1.Cl [MMV019199] | -66 | -2.2 |  | 
Inactive |  | CCOc1cccc(C(=O)Nc2ccc(-c3nc4ccccc4[nH]3)cc2)c1 [MMV019202] | -23 | 4 |  | 
Inactive |  | O=C(Nc1ccc(-c2nc3cc4ccccc4cc3[nH]2)cc1)c1cccc(Br)c1 [MMV019241] | -32 | -2.4 |  | 
Inactive |  | COc1ccc(-n2ccnc2SCC(=O)Nc2cc(C)ccc2C)c(OC)c1 [MMV019258] | -8 | 4 |  | 
 | 11.8 | Cc1sc2ncnc(Sc3nc4ccccc4[nH]3)c2c1C [MMV019266] | -72 | -2.2 |  | 
Inactive |  | Cn1c(=O)c2cc(C(=O)NCCCN3CCCCCC3)sc2c2ccccc21 [MMV019313] | -46 | -2.2 |  | 
Inactive |  | COc1ccc(N2CCN(C(CNC(=O)C3CCCCC3)c3ccc4c(c3)OCO4)CC2)cc1 (centres unmarked) [MMV019662] | -21 | 4 |  | 
Inactive |  | O=C(Nc1ccc(N2CCN(Cc3ccccc3)CC2)cc1)c1cccs1.O=C(O)C(F)(F)F [MMV019670] | 13 | 4 |  | 
 | 6.62 | COc1ccc(C2NCCc3c2[nH]c2ccccc32)cc1CN1CCN(c2ccc(F)cc2)CC1.Cl (centres unmarked) [MMV019690] | -89 | -1.1 |  | 
Inactive |  | O=C(Nc1ccc(N2CCCCC2)c(Cl)c1)c1ccc(Br)o1 [MMV019700] | 17 | 4 |  | 
 | 29.6 | Cc1[nH]c(-c2ccc(F)cc2)cc1C(=O)NC1CCN(Cc2ccccc2)CC1 [MMV019738] | -61 | -2.2 |  | 
 | 37.2 | Cc1ccc(C)c(Cn2c(N3CCC(C(=O)NCc4cccs4)CC3)nc3ccccc32)c1 [MMV019741] | -65 | -2.2 |  | 
 | 29.6 | Cc1ccc(Cl)cc1N1CCN(CCCNC(=O)C2CCN(c3nc4ccccc4[nH]3)CC2)CC1 [MMV019746] | -74 | -2.2 |  | 
Inactive |  | COc1ccc(C(=O)Nc2ccc3nc(N4CCCCC4)cc(C)c3c2)cc1OC [MMV019758] | -32 | -3 |  | 
Inactive |  | COc1cccc(C(=O)Nc2ccc(-c3nc4ccccc4[nH]3)cc2)c1 [MMV019762] | -1 | 4 |  | 
 | 4.18 | Cc1cc(C)c2nc(N3CCC(C(=O)NCCCN4CCC(N5CCCCC5)CC4)CC3)sc2c1 [MMV019780] | -106 | -1.1 |  | 
Inactive |  | Fc1ccc2[nH]c3c(NCCCN4CCOCC4)ncnc3c2c1 [MMV019871] | -42 | -2.2 |  | 
 | 2.96 | O=C(NC1CCN(Cc2ccccc2)CC1)c1cc(C(=O)NC2CCN(Cc3ccccc3)CC2)cc(C(=O)NC2CCN(Cc3ccccc3)CC2)c1 [MMV019881] | -90 | -1.1 |  | 
 | 1.87 | Cl.Clc1cc(Br)ccc1-c1ccc(CNCC2CCNCC2)o1 [MMV019918] | -106 | -1.1 |  | 

SMILES | IC50 [2] | IC50 [3] [µM] | Max Resp (Malaria Box) [%] | Curve Class [1] | reduction of gametocyte viability (Malaria Box screen) [%] | IC50 (P. falciparum 3D7 gametocytes, mean of at least 3 independent experiments, read-out: Gametocyte IC50) [µM]
O=C(O)C(=O)O.Oc1ccccc1CN1CCN(C(c2ccccc2)c2ccccc2)CC1 [MMV011795] |  | 5.9 | -53 | -2.2 |  | 
CCN(Cc1ccccc1)C1CCN(Cc2cc(Br)ccc2O)CC1.O=C(O)C(=O)O [MMV019127] |  | 0.935 | -56 | -1.2 |  | 
CCC1(C)CC(CCNCc2ccccc2O)(c2ccc(C)cc2)CCO1 (centres unmarked) [MMV019406] |  | 0.418 | -82 | -1.1 | > 75 | < 1
Cl.c1ccc2c(NCCCCCCNc3c4c(nc5ccccc35)CCCC4)c3c(nc2c1)CCCC3 [MMV019555] |  | 4.69 | -104 | -1.1 |  | 
